Test results from PMC6680717, “Design, Synthesis and Biological Evaluation of Novel Coumarin-Based Hydroxamate Derivatives as Histone Deacetylase (Hdac) Inhibitors with Antitumor Activities” (Molecules, 2019).

Columns and labels:
recombinant HDAC1 = biological target: T1, recombinant HDAC1 (Homo sapiens, UniProt Q13547); assay: HDAC1 inhibitory assay (protease-coupled, Ac-peptide-AMC fluorescence); format: biochemical; details: for IC50: recombinant HDAC1, n ≥ 3; for times greater potency than SAHA, HDAC1: ratio of IC50 versus SAHA
T1 construct: purchased BPS Biosciences
Method: The HDAC1 enzyme activity in vitro was determined by the protease-coupled assay. Different concentrations of compounds were incubated with recombinant HDAC1 (BPS Biosciences, San Diego, CA, USA) at room temperature for 15 min, followed by adding trypsin, as well as Ac-peptide-AMC substrates, to initiate the reaction in a Tris-based assay buffer. […] The IC50 values were calculated by GraphPad Prism software (La Jolla, CA, USA). (for details see Supplementary Materials)

A549 cells [1] = assay: In vitro anti-proliferation assay (MTT), A549; format: cell-based; details: Homo sapiens, 48 h, read-out: Anti-proliferative activity IC50, A549
Method: (§1) The in vitro anti-proliferation assay was operated as previously described. In brief, the human cancer cell lines, A549, HeLa and HepG2, were seeded into 96-well plates at the appropriate cell densities. After incubation for 24 h, the cells were treated with various concentrations of tested compounds for 48 h. Then, the 3–(4,5–dimethyl–2-thiazolyl)–2,5–diphenyl–2–H–tetrazolium bromide (MTT) solution was added and co-incubated for another 4 h. The reactions were stopped by the addition of DMSO solution, and the samples were measured at 490 nm by a microplate spectrophotometer (Thermo Fisher Scientific, Waltham, MA USA). The IC50 was calculated using GraphPad Software. Three independent experiments were carried out in triplicate. (for details see Supplementary Materials)

HDAC6 = biological target: T2, HDAC6 (Homo sapiens, UniProt Q9UBN7); assay: HDAC isoform inhibition assay, HDAC6
T2 sequence (Q9UBN7 1-1215): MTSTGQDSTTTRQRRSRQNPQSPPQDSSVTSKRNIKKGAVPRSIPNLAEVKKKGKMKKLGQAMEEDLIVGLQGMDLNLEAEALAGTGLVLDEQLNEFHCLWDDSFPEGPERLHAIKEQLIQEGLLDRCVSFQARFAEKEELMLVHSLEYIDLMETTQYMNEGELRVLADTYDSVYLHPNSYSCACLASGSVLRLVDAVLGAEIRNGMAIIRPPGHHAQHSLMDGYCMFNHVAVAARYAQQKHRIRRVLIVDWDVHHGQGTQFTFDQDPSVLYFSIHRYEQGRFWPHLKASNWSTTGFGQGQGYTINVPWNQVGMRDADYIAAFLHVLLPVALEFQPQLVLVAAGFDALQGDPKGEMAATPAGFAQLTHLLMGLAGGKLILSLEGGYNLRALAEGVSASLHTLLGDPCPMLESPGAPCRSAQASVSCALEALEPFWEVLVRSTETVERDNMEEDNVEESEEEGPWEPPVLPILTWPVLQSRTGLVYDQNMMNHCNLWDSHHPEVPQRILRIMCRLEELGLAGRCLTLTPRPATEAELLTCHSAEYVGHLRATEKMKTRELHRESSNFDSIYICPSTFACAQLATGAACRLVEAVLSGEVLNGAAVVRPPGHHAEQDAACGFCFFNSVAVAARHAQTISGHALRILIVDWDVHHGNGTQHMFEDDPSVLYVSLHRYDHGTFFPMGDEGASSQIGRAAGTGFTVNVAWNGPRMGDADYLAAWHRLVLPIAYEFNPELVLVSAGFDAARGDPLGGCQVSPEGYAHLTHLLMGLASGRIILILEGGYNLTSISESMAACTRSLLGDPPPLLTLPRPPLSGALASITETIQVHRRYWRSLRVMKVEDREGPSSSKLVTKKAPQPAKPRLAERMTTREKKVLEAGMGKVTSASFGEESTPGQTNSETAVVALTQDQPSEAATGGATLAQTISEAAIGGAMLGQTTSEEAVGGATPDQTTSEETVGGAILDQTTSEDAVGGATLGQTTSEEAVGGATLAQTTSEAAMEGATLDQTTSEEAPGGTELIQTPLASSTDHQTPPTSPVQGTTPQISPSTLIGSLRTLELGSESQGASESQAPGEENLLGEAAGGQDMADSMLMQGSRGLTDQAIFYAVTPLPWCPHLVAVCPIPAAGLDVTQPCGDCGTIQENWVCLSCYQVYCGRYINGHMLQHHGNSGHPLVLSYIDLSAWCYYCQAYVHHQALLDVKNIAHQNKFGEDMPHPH

HDAC8 = biological target: T3, HDAC8 (Homo sapiens, UniProt Q9BY41); assay: HDAC isoform inhibition assay, HDAC8; details: for times greater potency than SAHA, HDAC8: ratio of IC50 versus SAHA
T3 sequence (Q9BY41 1-377): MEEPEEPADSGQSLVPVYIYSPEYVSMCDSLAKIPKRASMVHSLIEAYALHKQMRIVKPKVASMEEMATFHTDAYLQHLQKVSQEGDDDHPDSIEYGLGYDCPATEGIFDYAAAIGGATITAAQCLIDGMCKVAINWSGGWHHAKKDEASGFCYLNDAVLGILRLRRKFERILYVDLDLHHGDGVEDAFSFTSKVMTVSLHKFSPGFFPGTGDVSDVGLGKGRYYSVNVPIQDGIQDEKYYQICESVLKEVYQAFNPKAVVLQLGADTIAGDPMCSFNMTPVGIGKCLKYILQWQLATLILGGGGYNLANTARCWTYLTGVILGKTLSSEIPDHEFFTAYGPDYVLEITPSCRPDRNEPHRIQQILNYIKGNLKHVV

A549 cells [2] = assay: Cell apoptosis analysis (annexin V FITC/PI, flow cytometry); details: 72 h
Method: The cell apoptosis analysis was measured by annexin V FITC/PI assay using the Vybrant Apoptosis Assay kit (Invitrogen, Carlsbad, CA, USA). […] After staining, 400 μL of 1X annexin-binding buffer was added, mixed gently and kept on ice. The samples were measured using a BD Biosciences FACS Aria flow cytometer.

HDAC4 = HDAC4 (Homo sapiens, UniProt P56524); assay: HDAC isoform inhibition assay, HDAC4
[3] = test system: acetylated histone H3 and H4; assay: Western blot of acetylated histone levels in A549 cells; details: A549 cells, 0.2, 0.5 and 1.0 μM, 48 h
Method: The levels of acetylated histone H3 and H4 were analyzed by Western blotting assays with β–actin as the negative control. […] Briefly, human cancer cells were lysed in a lysis buffer (50 mM Tris-HCl pH 8.0, 5 mM EDTA, 100 mM NaCl, 0.5% NP-40, 1 mM PMSF), centrifuged for 10 min at 10,000 g, and the insoluble debris were discarded. Cell lysates were further analyzed with SDS-PAGE and western blotting with the indicated antibodies.

HDAC11 = biological target: T4, HDAC11 (Homo sapiens, UniProt Q96DB2); assay: HDAC isoform inhibition assay, HDAC11
T4 sequence (Q96DB2 1-347): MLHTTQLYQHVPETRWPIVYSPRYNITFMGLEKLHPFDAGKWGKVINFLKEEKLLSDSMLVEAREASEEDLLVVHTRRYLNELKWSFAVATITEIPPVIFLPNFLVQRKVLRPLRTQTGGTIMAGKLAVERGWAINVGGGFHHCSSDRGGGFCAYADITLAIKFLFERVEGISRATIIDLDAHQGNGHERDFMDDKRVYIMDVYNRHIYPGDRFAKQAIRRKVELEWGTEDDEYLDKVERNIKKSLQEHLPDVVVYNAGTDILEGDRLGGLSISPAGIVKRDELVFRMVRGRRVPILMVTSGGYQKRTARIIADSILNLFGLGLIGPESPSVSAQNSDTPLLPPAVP

HepG2 cells = assay: In vitro anti-proliferation assay (MTT), HepG2; format: cell-based; details: Homo sapiens, 48 h, read-out: Anti-proliferative activity IC50, HepG2
Method: as §1

A549 cells [4] = assay: Cell cycle analysis (PI, flow cytometry); format: cell-based, human; details: 24 h, result in words
Method: Next, we investigated whether the potent anti-proliferative activity of 10e and 11d resulted from the induction of the cell cycle arrest. […] This was evidenced by the increasing percentages of cells in the G2/M phase, accompanied by a proportionate reduction in other phases of the cell cycle.
The cell cycle analysis was carried out by estimating the DNA contents with flow cytometry. After incubation with the indicated doses of 10e or 11d for 24 h, A549 cells were fixed in 70% ice-cold ethanol, incubated overnight at –20 °C, stained with propidium iodide (PI)/Triton X-100 containing RNaseA solution for 20 min at 37 °C, and then analyzed by FACS.

HDAC2 = HDAC2 (Homo sapiens, UniProt Q92769); assay: HDAC isoform inhibition assay, HDAC2
Hela cells = assay: In vitro anti-proliferation assay (MTT), Hela; format: cell-based; details: Homo sapiens, 48 h, read-out: Anti-proliferative activity IC50, Hela
Method: as §1

HDAC5 = HDAC5 (Homo sapiens, UniProt Q9UQL6); assay: HDAC isoform inhibition assay, HDAC5
Sequence of HDAC5 (Q9UQL6 whole entry, canonical isoform): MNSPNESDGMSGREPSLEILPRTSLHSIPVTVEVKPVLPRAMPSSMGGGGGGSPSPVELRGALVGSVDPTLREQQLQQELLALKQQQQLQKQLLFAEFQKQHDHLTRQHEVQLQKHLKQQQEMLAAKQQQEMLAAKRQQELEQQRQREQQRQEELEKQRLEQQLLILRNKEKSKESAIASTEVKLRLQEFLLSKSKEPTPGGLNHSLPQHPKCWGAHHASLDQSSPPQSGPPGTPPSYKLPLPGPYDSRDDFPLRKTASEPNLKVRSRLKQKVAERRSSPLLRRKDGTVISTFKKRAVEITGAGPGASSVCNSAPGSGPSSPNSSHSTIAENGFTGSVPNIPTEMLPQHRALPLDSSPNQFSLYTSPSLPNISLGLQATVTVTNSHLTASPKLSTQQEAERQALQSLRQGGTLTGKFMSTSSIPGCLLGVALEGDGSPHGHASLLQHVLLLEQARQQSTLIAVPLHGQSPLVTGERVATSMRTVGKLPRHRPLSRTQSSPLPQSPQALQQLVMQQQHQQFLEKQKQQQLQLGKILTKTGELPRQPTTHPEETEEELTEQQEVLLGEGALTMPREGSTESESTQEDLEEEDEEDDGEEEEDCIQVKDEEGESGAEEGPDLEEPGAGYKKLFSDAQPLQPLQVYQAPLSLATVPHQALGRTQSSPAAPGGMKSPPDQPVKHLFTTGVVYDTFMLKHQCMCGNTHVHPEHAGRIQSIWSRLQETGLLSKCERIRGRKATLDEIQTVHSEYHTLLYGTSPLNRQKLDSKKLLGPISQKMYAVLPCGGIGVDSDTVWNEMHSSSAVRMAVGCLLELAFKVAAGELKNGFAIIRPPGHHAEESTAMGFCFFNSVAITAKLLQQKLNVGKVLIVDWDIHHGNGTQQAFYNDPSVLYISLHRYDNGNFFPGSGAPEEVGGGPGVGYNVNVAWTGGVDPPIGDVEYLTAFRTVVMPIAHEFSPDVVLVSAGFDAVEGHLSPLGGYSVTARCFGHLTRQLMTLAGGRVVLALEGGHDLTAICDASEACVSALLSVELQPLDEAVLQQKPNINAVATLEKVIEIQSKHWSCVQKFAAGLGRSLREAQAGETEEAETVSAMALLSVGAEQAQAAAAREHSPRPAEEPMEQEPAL

Sequence of HDAC2 (Q92769 whole entry, canonical isoform): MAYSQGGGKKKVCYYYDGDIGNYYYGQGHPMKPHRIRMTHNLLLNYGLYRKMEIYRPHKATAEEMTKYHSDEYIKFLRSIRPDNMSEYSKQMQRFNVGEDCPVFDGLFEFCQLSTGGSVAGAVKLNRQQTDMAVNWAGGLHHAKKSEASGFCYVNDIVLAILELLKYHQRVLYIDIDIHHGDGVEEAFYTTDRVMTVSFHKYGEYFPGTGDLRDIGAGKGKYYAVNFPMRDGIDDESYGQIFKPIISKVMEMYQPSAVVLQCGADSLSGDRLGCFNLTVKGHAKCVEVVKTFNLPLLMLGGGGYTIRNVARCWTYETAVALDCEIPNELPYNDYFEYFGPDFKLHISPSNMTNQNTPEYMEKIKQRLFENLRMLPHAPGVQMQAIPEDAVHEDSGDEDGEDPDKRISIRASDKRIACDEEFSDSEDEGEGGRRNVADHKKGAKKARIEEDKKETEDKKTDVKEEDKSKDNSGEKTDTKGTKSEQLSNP
T1 sequence (Q13547 whole entry): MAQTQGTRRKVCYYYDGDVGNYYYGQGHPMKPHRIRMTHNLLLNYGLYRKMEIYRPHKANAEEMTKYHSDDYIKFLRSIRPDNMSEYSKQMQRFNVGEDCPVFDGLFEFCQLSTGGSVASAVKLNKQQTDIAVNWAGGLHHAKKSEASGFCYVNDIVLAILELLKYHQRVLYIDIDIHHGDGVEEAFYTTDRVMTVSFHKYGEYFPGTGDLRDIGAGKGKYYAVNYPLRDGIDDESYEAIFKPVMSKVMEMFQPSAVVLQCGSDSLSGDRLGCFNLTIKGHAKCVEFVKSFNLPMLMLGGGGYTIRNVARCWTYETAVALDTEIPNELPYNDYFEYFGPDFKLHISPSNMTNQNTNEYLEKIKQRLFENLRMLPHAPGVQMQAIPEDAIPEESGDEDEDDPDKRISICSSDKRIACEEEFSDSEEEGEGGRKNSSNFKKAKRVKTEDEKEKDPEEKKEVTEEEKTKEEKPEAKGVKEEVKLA
Sequence of HDAC4 (P56524 whole entry, canonical isoform): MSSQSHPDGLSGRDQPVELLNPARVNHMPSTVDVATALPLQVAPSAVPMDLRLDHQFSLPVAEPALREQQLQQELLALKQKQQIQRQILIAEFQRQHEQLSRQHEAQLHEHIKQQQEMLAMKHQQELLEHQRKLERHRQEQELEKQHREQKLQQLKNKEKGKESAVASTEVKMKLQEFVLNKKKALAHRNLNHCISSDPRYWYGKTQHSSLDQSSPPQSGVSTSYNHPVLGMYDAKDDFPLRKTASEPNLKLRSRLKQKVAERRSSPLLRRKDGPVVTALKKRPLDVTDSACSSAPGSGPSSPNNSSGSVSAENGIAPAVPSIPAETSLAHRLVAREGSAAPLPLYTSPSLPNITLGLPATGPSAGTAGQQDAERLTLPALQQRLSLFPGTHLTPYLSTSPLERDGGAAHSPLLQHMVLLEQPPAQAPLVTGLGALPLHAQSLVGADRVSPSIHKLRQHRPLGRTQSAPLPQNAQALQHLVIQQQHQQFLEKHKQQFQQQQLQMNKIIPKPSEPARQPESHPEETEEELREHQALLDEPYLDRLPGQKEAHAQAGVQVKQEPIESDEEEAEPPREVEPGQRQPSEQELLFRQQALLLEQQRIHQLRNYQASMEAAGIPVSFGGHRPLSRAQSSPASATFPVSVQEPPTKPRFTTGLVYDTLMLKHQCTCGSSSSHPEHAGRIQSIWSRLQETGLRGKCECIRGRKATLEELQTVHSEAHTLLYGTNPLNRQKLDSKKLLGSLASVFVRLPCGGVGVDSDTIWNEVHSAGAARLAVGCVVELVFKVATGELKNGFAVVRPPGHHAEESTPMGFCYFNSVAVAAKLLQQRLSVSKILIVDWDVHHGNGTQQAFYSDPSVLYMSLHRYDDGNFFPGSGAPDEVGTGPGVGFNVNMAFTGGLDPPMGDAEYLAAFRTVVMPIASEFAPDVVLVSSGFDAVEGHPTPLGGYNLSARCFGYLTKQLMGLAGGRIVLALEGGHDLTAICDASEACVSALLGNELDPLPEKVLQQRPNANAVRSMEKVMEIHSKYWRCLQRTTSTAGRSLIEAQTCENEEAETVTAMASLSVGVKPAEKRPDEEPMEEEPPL

## COc1ccc2c(OCCCCCC(=O)NO)cc(=O)oc2c1 [Compound 11b, N–hydroxy–6–((7–methoxy–2–oxo–2H–chromen–4–yl)oxy)hexanamide]
Recombinant HDAC1
  IC50: 19.4 ± 2.21 nM

## O=C(CCCCCCCOc1ccc2ccc(=O)oc2c1)NO [Compound 12a, N–hydroxy–8–((2–oxo–2H–chromen–7–yl)oxy)octanamide]
Recombinant HDAC1
  times greater potency than SAHA, HDAC1: approximately three
  IC50: 8.72 ± 1.03 nM

## Cc1cc(=O)oc2cc(OCCCCCCCC(=O)NO)ccc12 [Compound 12b, N–hydroxy–8–((4–methyl–2–oxo–2H–chromen–7–yl)oxy)octanamide]
Recombinant HDAC1
  times greater potency than SAHA, HDAC1: approximately three
  IC50: 6.88 ± 0.85 nM

## O=C(CCCCCNc1cc(=O)oc2ccccc12)NO [Compound 10b, N–hydroxy–6–((2–oxo–2H–chromen–4–yl)amino)hexanamide]
Recombinant HDAC1
  IC50: 9.11 ± 0.2 nM

## COc1ccc2c(NCCCCCCC(=O)NO)cc(=O)oc2c1 [Compound 10d, N–hydroxy–7–((7–methoxy–2–oxo–2H–chromen–4–yl)amino)heptanamide]
Recombinant HDAC1
  IC50: 2.51 ± 0.12 nM

## COc1ccc2c(OCCCCCCCCC(=O)NO)cc(=O)oc2c1 [Compound 11e, N–hydroxy–9–((7–methoxy–2–oxo–2H–chromen–4–yl)oxy)nonanamide]
Recombinant HDAC1
  IC50: 7.33 ± 1.01 nM

## COc1ccc2c(NCCCCCCCC(=O)NO)cc(=O)oc2c1 [Compound 10e, N–hydroxy–8–((7–methoxy–2–oxo–2H–chromen–4–yl)amino)octanamide]
A549 cells [1]
  IC50: 1960 ± 740 nM
HDAC6
  IC50: 5.4 ± 1 nM
HDAC8
  IC50: 16.9 ± 0.01 nM
  times greater potency than SAHA, HDAC8: ~12 times
A549 cells [2]; 1.25 μM
  apoptosis induced in A549 cancer cells: 51.9%
A549 cells [2]; 2.5 μM
  apoptosis induced in A549 cancer cells: 84.4%
A549 cells [2]; 5 μM
  apoptosis induced in A549 cancer cells: 90.3%
HDAC4
  IC50: > 1000 nM
[3]
  expression of acetylated histone H3 and H4: increase the expression of acetylated histone H3 and H4 in a dose-dependent manner
HDAC11
  IC50: > 1000 nM
HepG2 cells
  IC50: > 10000 nM
Recombinant HDAC1
  IC50: 0.24 ± 0.01 nM
A549 cells [4]
  cell cycle arrest in A549 cells: significant induction of the G2/M phase cell cycle arrest in a concentration-dependent manner
HDAC2
  IC50: 0.68 ± 0.05 nM
HDAC2; ratio of IC50 versus SAHA
  times greater potency than SAHA, HDAC2: ~27 times
Hela cells
  IC50: 1310 ± 860 nM
HDAC5
  IC50: > 1000 nM

## COc1ccc2c(OCCCCCCC(=O)NO)cc(=O)oc2c1 [Compound 11c, N–hydroxy–7–((7–methoxy–2–oxo–2H–chromen–4–yl)oxy)heptanamide]
Recombinant HDAC1
  IC50: 5.61 ± 0.56 nM

## COc1ccc2c(NCCCCCC(=O)NO)cc(=O)oc2c1 [Compound 10c, N–hydroxy–6–((7–methoxy–2–oxo–2H–chromen–4–yl)amino)hexanamide]
Recombinant HDAC1
  IC50: 6.43 ± 0.16 nM

## O=C(CCCCCCC(=O)Nc1ccccc1)NO [SAHA, vorinostat, reference compound]
A549 cells [2]; 1.25 μM
  apoptosis induced in A549 cancer cells: 27.6%
A549 cells [2]; 2.5 μM
  apoptosis induced in A549 cancer cells: 40.9%
A549 cells [2]; 5 μM
  apoptosis induced in A549 cancer cells: 61.4%

## COc1ccc2c(OCCCCC(=O)NO)cc(=O)oc2c1 [Compound 11a, N–hydroxy–5–((7–methoxy–2–oxo–2H–chromen–4–yl)oxy)pentanamide]
Recombinant HDAC1
  IC50: > 100 nM

## COc1ccc2c(OCCCCCCCC(=O)NO)cc(=O)oc2c1 [Compound 11d, N–hydroxy–8–((7–methoxy–2–oxo–2H–chromen–4–yl)oxy)octanamide]
A549 cells [1]
  IC50: 560 ± 280 nM
HDAC6
  IC50: 5.67 ± 1.42 nM
HDAC8
  IC50: 1.85 ± 0.14 nM
  times greater potency than SAHA, HDAC8: ~107 times
A549 cells [2]; 1.25 μM
  apoptosis induced in A549 cancer cells: 81.7%
A549 cells [2]; 2.5 μM
  apoptosis induced in A549 cancer cells: 87.2%
A549 cells [2]; 5 μM
  apoptosis induced in A549 cancer cells: 91.4%
HDAC4
  IC50: > 1000 nM
[3]
  expression of acetylated histone H3 and H4: increase the expression of acetylated histone H3 and H4 in a dose-dependent manner
HDAC11
  IC50: > 1000 nM
HepG2 cells
  IC50: 7710 ± 2070 nM
A549 cells [4]
  cell cycle arrest in A549 cells: significant induction of the G2/M phase cell cycle arrest in a concentration-dependent manner
HDAC2
  IC50: < 0.32 nM
Hela cells
  IC50: 2620 ± 1530 nM
HDAC5
  IC50: > 1000 nM

## O=C(CCNc1cc(=O)oc2ccccc12)NO [Compound 10a, N–hydroxy–3–((2–oxo–2H–chromen–4–yl)amino)propanamide]
Recombinant HDAC1
  IC50: > 100 nM
